# Bridge positions count the residues as written; N and C are the ends. Square brackets hold non-standard residues; d marks the D form. Peptide text beside a SMILES is read from it. * marks the point of attachment. Dab(CH2SO3H) = N[C@@H](CCNCS(=O)(=O)O)C(=O)O; Heptanoyl(6-Me) = CC(C)CCCCC(=O)*; Nonanoyl = CCCCCCCCC(=O)*; dDab = NCC[C@@H](N)C(=O)O; Heptanoyl = CCCCCCC(=O)*; Octanoyl = CCCCCCCC(=O)*; Orn = NCCC[C@H](N)C(=O)O; dDap = NC[C@@H](N)C(=O)O; Dab = NCC[C@H](N)C(=O)O; Dap = NC[C@H](N)C(=O)O
# Columns and labels:
# Assay type in all cases: cell-based
# [1] = system: Acinetobacter baumannii ABA19-1; details: ABA19-1
# Outline: (§1)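 Broth microdilution MIC per CLSI in MH broth, compounds 2-fold diluted to final 64–0.03 mg/L. Inoculum (2-4) × 10^5 CFU/mL final, from 0.5 McFarland suspensions of 18-24 h colonies. Plates sealed and incubated 35-37°C for 16-20 h.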
# [2] = system: Acinetobacter baumannii NCTC 13304 (OXA-27); details: NCTC 13304
# Outline: as §1
# [3] = system: Escherichia coli ATCC BAA-2340 (KPC); details: ATCC BAA-2340
# Outline: as §1
# [4] = system: Escherichia coli ATCC BAA-2523; details: ATCC BAA-2523
# Outline: as §1
# [5] = system: Klebsiella pneumoniae ATCC BAA-1705 (KPC); details: ATCC BAA-1705
# Outline: as §1
# [6] = system: Klebsiella pneumoniae KPN+19-15; details: KPN+19-15
# Outline: as §1
# [7] = system: Pseudomonas aeruginosa ATCC 27853; details: ATCC 27853
# Outline: as §1
# [8] = system: Pseudomonas aeruginosa PAE19-3; details: PAE19-3
# Outline: as §1
# [9] = Nephrotoxicity assay: in vitro cytotoxicity of HK-2 cells by CCK-8 assay; details: human, HK-2 cells (human renal), 72 h incubation with drug-containing medium
# Outline: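 HK-2 human renal cells in RPMI-1640 with 10% FBS were exposed to compounds at final 12.5–500 µg/mL for 72 h, then CCK-8 for 3 h and OD450 read. Viability was normalised to drug-free wells; IC50 came from logarithmic regression over three repeats, with polymyxin B as positive drug.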
compound,measurement,setting,value
"CC(C)CCCCC(=O)N[C@@H](CCN)C(=O)N[C@H](C(=O)N[C@H](CO)C(=O)N[C@H]1CCNC(=O)[C@H]([C@@H](C)O)NC(=O)[C@H](CN)NC(=O)[C@H](CCN)NC(=O)[C@H]([C@@H](C)O)NC(=O)[C@@H](Cc2ccccc2)NC(=O)[C@H](CCN)NC1=O)[C@@H](C)O [Compound 82, 6-methylheptanoyl-Dab-Thr-D-Ser-ring(4-10)[Dab-Dab-D-Phe-Thr-Dab-Dap-Thr]] ({Heptanoyl(6-Me)}-[Dab]T[dS][Dab][Dab][dF]T[Dab][Dap]T; lactam 4-C)",MIC,[1],0.06 µg/mL
same,MIC,[2],≤0.03 µg/mL
same,MIC,[3],0.03 µg/mL
same,MIC,[4],0.03 µg/mL
same,MIC,[5],0.25 µg/mL
same,MIC,[6],0.5 µg/mL
same,MIC,[7],>64 µg/mL
same,MIC,[8],64 µg/mL
same,IC50 at 72 h,[9],> 500 µg/mL
"CC(C)CCCCC(=O)N[C@@H](CCN)C(=O)N[C@H](C(=O)N[C@H](CO)C(=O)N[C@H]1CCNC(=O)[C@H]([C@@H](C)O)NC(=O)[C@H](CCN)NC(=O)[C@H](CCN)NC(=O)[C@H]([C@@H](C)O)NC(=O)[C@@H](Cc2ccccc2)NC(=O)[C@H](CCNCS(=O)(=O)O)NC1=O)[C@@H](C)O [Compound 109, 6-methylheptanoyl-Dab-Thr-D-Ser-ring(4-10)[Dab-Dab(CH2SO3H)-D-Phe-Thr-Dab-Dab-Thr]] ({Heptanoyl(6-Me)}-[Dab]T[dS][Dab][Dab(CH2SO3H)][dF]T[Dab][Dab]T; lactam 4-C)",MIC,[1],0.25 µg/mL
same,MIC,[2],0.06 µg/mL
same,MIC,[3],0.06 µg/mL
same,MIC,[4],0.06 µg/mL
same,MIC,[5],0.125 µg/mL
same,MIC,[6],0.125 µg/mL
same,MIC,[7],0.25 µg/mL
same,MIC,[8],0.5 µg/mL
same,IC50 at 72 h,[9],> 500 µg/mL
"CCCCCCCC(=O)N[C@@H](CCCN)C(=O)N[C@H](C(=O)N[C@H](CO)C(=O)N[C@H]1CCNC(=O)[C@H]([C@@H](C)O)NC(=O)[C@H](CCN)NC(=O)[C@H](CCN)NC(=O)[C@H]([C@@H](C)O)NC(=O)[C@@H](Cc2ccccc2)NC(=O)[C@H](CCN)NC1=O)[C@@H](C)O [Compound 58, Octanoyl-Orn-Thr-D-Ser-ring(4-10)[Dab-Dab-D-Phe-Thr-Dab-Dab-Thr]] (Octanoyl-[Orn]T[dS][Dab][Dab][dF]T[Dab][Dab]T; lactam 4-C)",MIC,[1],0.25 µg/mL
same,MIC,[2],0.25 µg/mL
same,MIC,[3],0.125 µg/mL
same,MIC,[4],0.125 µg/mL
same,MIC,[5],0.25 µg/mL
same,MIC,[6],0.5 µg/mL
same,MIC,[7],64 µg/mL
same,MIC,[8],4 µg/mL
same,IC50 at 72 h,[9],> 500 µg/mL
"CCCCCCC(=O)N[C@@H](CCN)C(=O)N[C@H](C(=O)N[C@H](CN)C(=O)N[C@H]1CCNC(=O)[C@H]([C@@H](C)O)NC(=O)[C@H](CCN)NC(=O)[C@H](CCN)NC(=O)[C@H]([C@@H](C)O)NC(=O)[C@@H](Cc2ccccc2)NC(=O)[C@H](CCN)NC1=O)[C@@H](C)O [Compound 4, Heptanoyl-Dab-Thr-D-Dap-ring(4-10)[Dab-Dab-D-Phe-Thr-Dab-Dab-Thr]] (Heptanoyl-[Dab]T[dDap][Dab][Dab][dF]T[Dab][Dab]T; lactam 4-C)",MIC,[1],0.03 µg/mL
same,MIC,[2],0.03 µg/mL
same,MIC,[3],0.03 µg/mL
same,MIC,[4],0.03 µg/mL
same,MIC,[5],0.03 µg/mL
same,MIC,[6],0.03 µg/mL
same,MIC,[7],0.03 µg/mL
same,MIC,[8],0.25 µg/mL
same,IC50 at 72 h,[9],> 500 µg/mL
"CCCCCCCCC(=O)N[C@@H](CCN)C(=O)N[C@H](C(=O)N[C@@H](CN)C(=O)N[C@H]1CCNC(=O)[C@H]([C@@H](C)O)NC(=O)[C@H](CCN)NC(=O)[C@H](CCN)NC(=O)[C@H]([C@@H](C)O)NC(=O)[C@@H](Cc2ccccc2)NC(=O)[C@H](CCN)NC1=O)[C@@H](C)O [Compound 10, Nonanoyl-Dab-Thr-Dap-ring(4-10)[Dab-Dab-D-Phe-Thr-Dab-Dab-Thr]] (Nonanoyl-[Dab]T[Dap][Dab][Dab][dF]T[Dab][Dab]T; lactam 4-C)",MIC,[1],0.06 µg/mL
same,MIC,[2],0.06 µg/mL
same,MIC,[3],0.06 µg/mL
same,MIC,[4],0.06 µg/mL
same,MIC,[5],0.06 µg/mL
same,MIC,[6],0.06 µg/mL
same,MIC,[7],0.25 µg/mL
same,MIC,[8],0.5 µg/mL
same,IC50 at 72 h,[9],350 ± 30.7 µg/mL
"CCCCCCCC(=O)N[C@@H](CCN)C(=O)N[C@H](C(=O)N[C@H](CO)C(=O)N[C@H]1CCNC(=O)[C@H]([C@@H](C)O)NC(=O)[C@H](CCN)NC(=O)[C@H](CN)NC(=O)[C@H]([C@@H](C)O)NC(=O)[C@@H](Cc2ccccc2)NC(=O)[C@H](CCN)NC1=O)[C@@H](C)O [Compound 73, Octanoyl-Dab-Thr-D-Ser-ring(4-10)[Dab-Dab-D-Phe-Thr-Dap-Dab-Thr]] (Octanoyl-[Dab]T[dS][Dab][Dab][dF]T[Dap][Dab]T; lactam 4-C)",MIC,[1],0.06 µg/mL
same,MIC,[2],≤0.03 µg/mL
same,MIC,[3],≤0.03 µg/mL
same,MIC,[4],≤0.03 µg/mL
same,MIC,[5],0.25 µg/mL
same,MIC,[6],0.5 µg/mL
same,MIC,[7],>64 µg/mL
same,MIC,[8],64 µg/mL
same,IC50 at 72 h,[9],> 500 µg/mL
"CCCCCCC(=O)N[C@@H](CN)C(=O)N[C@H](C(=O)N[C@H](CCN)C(=O)N[C@H]1CCNC(=O)[C@H]([C@@H](C)O)NC(=O)[C@H](CCN)NC(=O)[C@H](CCN)NC(=O)[C@H](CC(C)C)NC(=O)[C@@H](Cc2ccccc2)NC(=O)[C@H](CCN)NC1=O)[C@@H](C)O [Compound 94, Heptanoyl-Dap-Thr-D-Dab-ring(4-10)[Dab-Dab-D-Phe-Leu-Dab-Dab-Thr]] (Heptanoyl-[Dap]T[dDab][Dab][Dab][dF]L[Dab][Dab]T; lactam 4-C)",MIC,[1],0.03 µg/mL
same,MIC,[2],0.03 µg/mL
same,MIC,[3],0.06 µg/mL
same,MIC,[4],0.06 µg/mL
same,MIC,[5],0.03 µg/mL
same,MIC,[6],0.03 µg/mL
same,MIC,[7],1 µg/mL
same,MIC,[8],1 µg/mL
same,IC50 at 72 h,[9],298 ± 30.7 µg/mL
"CCCCCCCCC(=O)N[C@@H](CCN)C(=O)N[C@H](C(=O)N[C@H](CCN)C(=O)N[C@H]1CCNC(=O)[C@H]([C@@H](C)O)NC(=O)[C@H](CCN)NC(=O)[C@H](CCN)NC(=O)[C@H]([C@@H](C)O)NC(=O)[C@@H](Cc2ccccc2)NC(=O)[C@H](CCN)NC1=O)[C@@H](C)O [Compound 15, Nonanoyl-Dab-Thr-D-Dab-ring(4-10)[Dab-Dab-D-Phe-Thr-Dab-Dab-Thr]] (Nonanoyl-[Dab]T[dDab][Dab][Dab][dF]T[Dab][Dab]T; lactam 4-C)",MIC,[1],0.06 µg/mL
same,MIC,[2],0.06 µg/mL
same,MIC,[3],0.06 µg/mL
same,MIC,[4],0.06 µg/mL
same,MIC,[5],0.06 µg/mL
same,MIC,[6],0.06 µg/mL
same,MIC,[7],2 µg/mL
same,MIC,[8],2 µg/mL
same,IC50 at 72 h,[9],320 ± 31.5 µg/mL
"CCCCCCC(=O)N[C@@H](CCN)C(=O)N[C@H](C(=O)N[C@H](CO)C(=O)N[C@H]1CCNC(=O)[C@H]([C@@H](C)O)NC(=O)[C@H](CCN)NC(=O)[C@H](CN)NC(=O)[C@H]([C@@H](C)O)NC(=O)[C@@H](Cc2ccccc2)NC(=O)[C@H](CCN)NC1=O)[C@@H](C)O [Compound 74, Heptanoyl-Dab-Thr-D-Ser-ring(4-10)[Dab-Dab-D-Phe-Thr-Dap-Dab-Thr]] (Heptanoyl-[Dab]T[dS][Dab][Dab][dF]T[Dap][Dab]T; lactam 4-C)",MIC,[1],0.06 µg/mL
same,MIC,[2],0.03 µg/mL
same,MIC,[3],0.06 µg/mL
same,MIC,[4],0.06 µg/mL
same,MIC,[5],0.25 µg/mL
same,MIC,[6],0.5 µg/mL
same,MIC,[7],>64 µg/mL
same,MIC,[8],64 µg/mL
same,IC50 at 72 h,[9],> 500 µg/mL
"CCCCCCC(=O)N[C@@H](CCN)C(=O)N[C@H](C(=O)N[C@H](CCN)C(=O)N[C@H]1CCNC(=O)[C@H]([C@@H](C)O)NC(=O)[C@H](CCN)NC(=O)[C@H](CCN)NC(=O)[C@H]([C@@H](C)O)NC(=O)[C@@H](Cc2ccccc2)NC(=O)[C@H](CCN)NC1=O)[C@@H](C)O [Compound 14, Heptanoyl-Dab-Thr-D-Dab-ring(4-10)[Dab-Dab-D-Phe-Thr-Dab-Dab-Thr]] (Heptanoyl-[Dab]T[dDab][Dab][Dab][dF]T[Dab][Dab]T; lactam 4-C)",MIC,[1],0.03 µg/mL
same,MIC,[2],0.03 µg/mL
same,MIC,[3],0.03 µg/mL
same,MIC,[4],0.03 µg/mL
same,MIC,[5],0.06 µg/mL
same,MIC,[6],0.03 µg/mL
same,MIC,[7],2 µg/mL
same,MIC,[8],2 µg/mL
same,IC50 at 72 h,[9],> 500 µg/mL
"CCCCCCCC(=O)N[C@@H](CCN)C(=O)N[C@H](C(=O)N[C@@H](CCCN)C(=O)N[C@H]1CCNC(=O)[C@H]([C@@H](C)O)NC(=O)[C@H](CCN)NC(=O)[C@H](CCN)NC(=O)[C@H]([C@@H](C)O)NC(=O)[C@@H](Cc2ccccc2)NC(=O)[C@H](CCN)NC1=O)[C@@H](C)O [Compound 28, Octanoyl-Dab-Thr-Orn-ring(4-10)[Dab-Dab-D-Phe-Thr-Dab-Dab-Thr]] (Octanoyl-[Dab]T[Orn][Dab][Dab][dF]T[Dab][Dab]T; lactam 4-C)",MIC,[1],0.125 µg/mL
same,MIC,[2],0.06 µg/mL
same,MIC,[3],≤0.03 µg/mL
same,MIC,[4],≤0.03 µg/mL
same,MIC,[5],≤0.03 µg/mL
same,MIC,[6],≤0.03 µg/mL
same,MIC,[7],≤0.03 µg/mL
same,MIC,[8],0.25 µg/mL
same,IC50 at 72 h,[9],> 500 µg/mL

# Reference: patent EP4725957A1, “GROUP OF CYCLIC ALKALINE LIPOPEPTIDE COMPOUNDS, AND PREPARATION METHOD THEREFOR AND USE THEREOF” (Institute of Medicinal Biotechnology, Chinese Academy of …, priority 2023, dated 2024)
